According to publication PMC8862293, “Quercetin mitigates rheumatoid arthritis by inhibiting adenosine deaminase in rats” (Molecular Medicine, 2022):

Target: T1, adenosine deaminase (ADA) (Rattus norvegicus, UniProt Q920P6)
T1 construct: native enzyme partially purified from rat joint tissue
T1 sequence (Q920P6 2-352): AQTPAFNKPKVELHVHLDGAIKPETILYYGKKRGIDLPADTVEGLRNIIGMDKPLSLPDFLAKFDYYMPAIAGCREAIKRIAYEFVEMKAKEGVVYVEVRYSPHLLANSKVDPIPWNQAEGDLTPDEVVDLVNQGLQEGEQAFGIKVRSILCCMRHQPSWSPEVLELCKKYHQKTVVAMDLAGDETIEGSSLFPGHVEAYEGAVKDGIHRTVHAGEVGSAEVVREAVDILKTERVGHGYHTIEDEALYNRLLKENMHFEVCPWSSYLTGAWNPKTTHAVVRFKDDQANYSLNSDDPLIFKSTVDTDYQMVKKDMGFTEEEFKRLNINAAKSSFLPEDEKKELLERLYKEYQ
Experiment: Colorimetric (Giusti) ADA activity assay on partially purified rat joint enzyme; Lineweaver-Burk kinetics
Assay type: biochemical

## O=c1c(O)c(-c2ccc(O)c(O)c2)oc2cc(O)cc(O)c12 [quercetin]
  IC50: 170 µM
